Test results as given in patent US20220175729A1, “PHARMACEUTICAL USE OF CHLOROPHYLLIDE FOR CANCER THERAPY” (I-SHOU UNIVERSITY, priority 2020, published 2022).
Each block holds one compound with its values, some of them ahead of it.

How the values were obtained:
[1] = DPPH free radical scavenging assay; format: biochemical
Protocol: The DPPH assay was used to evaluate the free radical-scavenging of chlorophyllide. Briefly, DPPH (8 mg) was dissolved in methanol (100 mL) to obtain a stock solution of 80 μg/mL. Then, 2.95 mL of the working solution was mixed with 50 μL of sample. After incubation in a dark at room temperature for 20 min, the absorbance was measured at 517 nm. The DPPH scavenging effect (%) was determined using the following formula: […]
where Ac was the absorbance of the blank control, Ai was the absorbance in the presence of the samples, and Aj was the absorbance of the samples alone. Vitamin B2 was used as a reference standard compound.

MCF7 breast cancer cells [2] = conditions: FIG. 4 comparison, MTT, 0 to 200 μg/mL
[3] = system: MCF7 / MDA-MB-231 breast cancer cells; test: Log2 fold change of target genes (Table 5, cell line and method not stated); format: cell-based, human
Protocol: The gene expression profiles of the MCF7 breast cancer cells treated with chlorophyllide or MDA-MB-231 breast cancer cells treated with chlorophyllide and the corresponding untreated cells were analyzed by using next generation sequencing (NGS).
(§1) Then, among the 50 candidate genes, CCR1, STIM2, ETNK1, RAP2B, and TOP2A were used as target genes in real-time polymerase chain reaction (RT-PCR).

[4] = system: MDA-MB-231 breast cancer cells; test: Target gene expression by RT-PCR, MDA-MB-231; format: cell-based, human; conditions: MDA-MB-231 treated with chlorophyllide
Source text: as §1

MCF7 breast cancer cells [5] = test: Target gene expression by RT-PCR, MCF7; format: cell-based, human; conditions: MCF7 treated with chlorophyllide
Source text: as §1

Compound: Cc1cc2nc3c(=O)[nH]c(=O)nc-3n(C[C@H](O)[C@H](O)[C@H](O)CO)c2cc1C [vitamin B2]
- DPPH scavenging rate ([1]; 100 μg/mL): 28.05%

- IC50 (MCF7 breast cancer cells [2]): 197.31 µg/mL
- EC50 (concentration that can inhibit 50% of DPPH free radicals) ([1]; by extrapolation from regression analysis): 62.14 µg/mL
Compound: chlorophyll
- DPPH scavenging rate ([1]; 100 μg/mL): 52.95%
- DPPH scavenging rate ([1]; 200 μg/mL): 65.11%
- DPPH scavenging rate ([1]; 400 μg/mL): 88.62%

Compound: chlorophyllide
- Log2 fold change, CCR1 ([3]; gene CCR1): 5.954
- Log2 fold change, ETNK1 ([3]; gene ETNK1): 2.181
- Log2 fold change, RAP2B ([3]; gene RAP2B): 2.375
- Log2 fold change, STIM2 ([3]; gene STIM2): 2.783
- gene expression level by RT-PCR, CCR1 ([4]; gene CCR1): 10.079
- gene expression level by RT-PCR, ETNK1 ([4]; gene ETNK1): 5.954
- gene expression level by RT-PCR, MAGI1 ([4]; gene MAGI1): 1.3977
- gene expression level by RT-PCR, NLRC5 ([4]; gene NLRC5): 5.527
- gene expression level by RT-PCR, PKN1 ([4]; gene PKN1): 0.5819
- gene expression level by RT-PCR, RAP2B ([4]; gene RAP2B): 3.694
- gene expression level by RT-PCR, SLC7A7 ([4]; gene SLC7A7): 1.159
- gene expression level by RT-PCR, STIM2 ([4]; gene STIM2): 3.5088
- gene expression level by RT-PCR, TOP2A ([4]; gene TOP2A): 11.02
- DPPH scavenging rate ([1]; 100 μg/mL): 31.01%
- DPPH scavenging rate ([1]; 200 μg/mL): 26.92%
- DPPH scavenging rate ([1]; 400 μg/mL): 26.09%
- gene expression level by RT-PCR, CCR1 (MCF7 breast cancer cells [5]; gene CCR1): 6.798
- gene expression level by RT-PCR, ETNK1 (MCF7 breast cancer cells [5]; gene ETNK1): 1.987
- gene expression level by RT-PCR, MAGI1 (MCF7 breast cancer cells [5]; gene MAGI1): 3.126
- gene expression level by RT-PCR, NLRC5 (MCF7 breast cancer cells [5]; gene NLRC5): 0.684
- gene expression level by RT-PCR, PKN1 (MCF7 breast cancer cells [5]; gene PKN1): 1.167
- gene expression level by RT-PCR, RAP2B (MCF7 breast cancer cells [5]; gene RAP2B): 0.5882
- gene expression level by RT-PCR, SLC7A7 (MCF7 breast cancer cells [5]; gene SLC7A7): 0.3107
- gene expression level by RT-PCR, STIM2 (MCF7 breast cancer cells [5]; gene STIM2): 6.125
- gene expression level by RT-PCR, TOP2A (MCF7 breast cancer cells [5]; gene TOP2A): 1.574

- IC50 (MCF7 breast cancer cells [2]): 218.34 µg/mL
Compound: chlorophyllin
- DPPH scavenging rate ([1]; 100 μg/mL): 25.68%
- DPPH scavenging rate ([1]; 200 μg/mL): 30.58%
- DPPH scavenging rate ([1]; 400 μg/mL): 45.34%
